Data: ChEMBL document CHEMBL3400125, “Discovery of novel 2-(alkylmorpholin-4-yl)-6-(3-fluoropyridin-4-yl)-pyrimidin-4(3H)-ones as orally-active GSK-3β inhibitors for Alzheimer's disease” (Bioorg Med Chem Lett, 2015)

Key:
[1] = Intrinsic clearance in human liver microsomes; format: ADME
Cytochrome P450 3A4 = Cytochrome P450 3A4 (Homo sapiens, UniProt P08684); assay: Inhibition of recombinant human CYP3A4; format: ADME
[2] = biological target: Glycogen synthase kinase-3 beta (Homo sapiens, UniProt P49841); assay: Inhibition of human recombinant GSK3beta assessed as inhibition of [gamma32P]ATP after 1 hr by liquid scintillation counting in presence of prephosphorylated GS1 peptide
Cytochrome P450 2D6 = Cytochrome P450 2D6 (Homo sapiens, UniProt P10635); assay: Inhibition of recombinant human CYP2D6; format: ADME
Cytochrome P450 1A2 = biological target: T1, Cytochrome P450 1A2 (Homo sapiens, UniProt P05177); assay: Inhibition of recombinant human CYP1A2; format: ADME
T1 sequence (P05177 whole entry): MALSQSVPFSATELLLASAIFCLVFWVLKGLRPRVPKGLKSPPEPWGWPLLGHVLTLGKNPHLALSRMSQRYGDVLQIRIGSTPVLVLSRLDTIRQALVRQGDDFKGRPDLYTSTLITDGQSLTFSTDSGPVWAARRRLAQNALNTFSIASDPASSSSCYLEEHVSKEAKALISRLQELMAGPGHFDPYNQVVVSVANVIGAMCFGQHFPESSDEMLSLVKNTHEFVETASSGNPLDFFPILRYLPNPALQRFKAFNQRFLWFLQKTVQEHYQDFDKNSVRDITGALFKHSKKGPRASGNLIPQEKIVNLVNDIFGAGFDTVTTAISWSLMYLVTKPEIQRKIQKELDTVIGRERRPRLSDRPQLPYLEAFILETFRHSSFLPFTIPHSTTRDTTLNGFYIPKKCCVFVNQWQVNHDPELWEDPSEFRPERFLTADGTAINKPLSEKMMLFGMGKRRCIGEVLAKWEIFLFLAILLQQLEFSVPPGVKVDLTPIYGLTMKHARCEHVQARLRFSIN

[3] = Permeability across human Caco2 cells; format: ADME, cell-based; settings: Caco-2, read-out: permeability
Mus musculus = assay: Inhibition of GSK3beta-mediated tau phosphorylation at Ser396 residue in po dosed CD-1 mouse measured 1 hr post dose; format: functional; settings: CD-1, po

Sequence of Cytochrome P450 2D6 (P10635 whole entry): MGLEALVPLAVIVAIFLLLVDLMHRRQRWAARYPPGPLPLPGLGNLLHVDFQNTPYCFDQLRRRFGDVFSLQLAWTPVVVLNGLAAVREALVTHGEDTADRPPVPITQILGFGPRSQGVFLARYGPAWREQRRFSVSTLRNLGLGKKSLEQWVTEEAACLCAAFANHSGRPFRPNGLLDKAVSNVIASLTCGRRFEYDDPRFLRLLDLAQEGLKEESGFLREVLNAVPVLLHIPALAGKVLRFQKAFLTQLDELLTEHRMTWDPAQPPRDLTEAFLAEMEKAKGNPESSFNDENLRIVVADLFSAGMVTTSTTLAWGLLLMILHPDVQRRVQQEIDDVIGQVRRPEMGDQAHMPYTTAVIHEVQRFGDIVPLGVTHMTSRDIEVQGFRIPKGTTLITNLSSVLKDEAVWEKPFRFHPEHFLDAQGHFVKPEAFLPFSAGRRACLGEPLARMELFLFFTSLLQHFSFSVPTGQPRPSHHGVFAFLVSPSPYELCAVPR
Sequence of Cytochrome P450 3A4 (P08684 whole entry): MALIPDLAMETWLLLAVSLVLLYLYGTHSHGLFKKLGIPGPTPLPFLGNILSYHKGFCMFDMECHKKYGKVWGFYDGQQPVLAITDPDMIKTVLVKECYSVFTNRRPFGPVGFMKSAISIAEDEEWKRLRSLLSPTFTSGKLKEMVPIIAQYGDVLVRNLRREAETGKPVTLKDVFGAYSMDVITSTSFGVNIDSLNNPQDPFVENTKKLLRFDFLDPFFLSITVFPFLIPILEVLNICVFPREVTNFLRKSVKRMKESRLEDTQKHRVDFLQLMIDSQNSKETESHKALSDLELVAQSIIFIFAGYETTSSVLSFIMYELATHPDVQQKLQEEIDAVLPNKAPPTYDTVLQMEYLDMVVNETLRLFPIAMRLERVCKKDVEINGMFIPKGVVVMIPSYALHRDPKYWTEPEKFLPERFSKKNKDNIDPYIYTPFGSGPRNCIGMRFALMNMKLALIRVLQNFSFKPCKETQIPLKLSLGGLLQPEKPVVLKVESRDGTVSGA
Sequence of Glycogen synthase kinase-3 beta (P49841 whole entry): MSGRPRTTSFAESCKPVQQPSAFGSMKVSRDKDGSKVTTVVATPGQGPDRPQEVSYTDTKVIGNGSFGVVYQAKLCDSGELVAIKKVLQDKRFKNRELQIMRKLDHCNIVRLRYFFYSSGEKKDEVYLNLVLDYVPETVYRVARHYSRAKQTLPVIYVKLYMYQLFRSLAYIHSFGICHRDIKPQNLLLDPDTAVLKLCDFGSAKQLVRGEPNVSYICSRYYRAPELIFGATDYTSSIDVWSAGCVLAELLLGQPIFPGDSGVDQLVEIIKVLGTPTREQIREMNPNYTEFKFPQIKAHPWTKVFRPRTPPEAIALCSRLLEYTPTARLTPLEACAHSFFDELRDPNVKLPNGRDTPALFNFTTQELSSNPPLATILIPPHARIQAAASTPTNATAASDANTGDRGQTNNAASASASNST

Row | Compound | CLint scaled [1] | IC50 (Cytochrome P450 3A4) | IC50 [2] | IC50 (Cytochrome P450 2D6) | IC50 (Cytochrome P450 1A2) | Papp [3] | ED50 (Mus musculus)
1 | Cn1c(N2CCO[C@@H](c3ccc(F)cc3)C2)nc(-c2ccncn2)cc1=O | 60 µL/min/mg | > 50000 nM | – | – | – | – | –
2 | Cn1c(N2CCOCC2)nc(-c2ccncc2F)cc1=O | – | – | 67 nM | – | – | – | –
3 | C[C@@H]1CO[C@@H](C)CN1c1nc(-c2ccncc2F)cc(=O)n1C | – | – | 41 nM | – | – | – | –
4 | CC(C)[C@@H]1COCCN1c1nc(-c2ccncc2F)cc(=O)n1C | – | – | 14 nM | – | – | – | –
5 | Cn1c(N2CCO[C@@H]3CCCC[C@H]32)nc(-c2ccncc2F)cc1=O | 200 µL/min/mg | > 50000 nM | 3.7 nM | > 50000 nM | 14000 nM | 41.8 ×10⁻⁶ cm/s | –
6 | Cn1c(N2CCO[C@@H]3COC[C@H]32)nc(-c2ccncc2F)cc1=O | 20 µL/min/mg | > 50000 nM | 3.1 nM | > 50000 nM | > 50000 nM | 54.5 ×10⁻⁶ cm/s | –
7 | Cn1c(N2CCO[C@@H]3CCC[C@H]32)nc(-c2ccncc2F)cc1=O | 40 µL/min/mg | > 50000 nM | 4.2 nM | > 50000 nM | 21000 nM | 44.5 ×10⁻⁶ cm/s | –
8 | CC1N(c2nc(-c3ccncc3F)cc(=O)n2C)CCOC1(C)C (racemic) | – | – | 9.7 nM | – | – | – | –
9 | C[C@@H]1OCCN(c2nc(-c3ccncc3F)cc(=O)n2C)[C@H]1C | – | – | 19 nM | – | – | – | –
10 | CC(C)C1CN(c2nc(-c3ccncc3F)cc(=O)n2C)CCO1 (racemic) | 70 µL/min/mg | > 50000 nM | 17 nM | > 50000 nM | 3300 nM | – | –
11 | C[C@@H]1OCCN(c2nc(-c3ccncc3F)cc(=O)n2C)[C@@H]1C (stereo in doubt; 13) | – | – | 16 nM | – | – | – | –
12 | C[C@H]1COCCN1c1nc(-c2ccncc2F)cc(=O)n1C | 20 µL/min/mg | > 50000 nM | 23 nM | > 50000 nM | 5700 nM | – | –
13 | CC[C@@H]1COCCN1c1nc(-c2ccncc2F)cc(=O)n1C | – | – | 19 nM | – | – | – | –
14 | C[C@@H]1OCCN(c2nc(-c3ccncc3F)cc(=O)n2C)[C@@H]1C (stereo in doubt; 14) | – | – | 32 nM | – | – | – | –
15 | C[C@@H]1[C@@H](C)OCCN1c1nc(-c2ccncc2F)cc(=O)n1C | – | > 50000 nM | 4.9 nM | > 50000 nM | 16000 nM | 48.5 ×10⁻⁶ cm/s | –
16 | C[C@@H]1COCCN1c1nc(-c2ccncc2F)cc(=O)n1C | 30 µL/min/mg | > 50000 nM | 7 nM | > 50000 nM | 18700 nM | 54.6 ×10⁻⁶ cm/s | 6.8 mg/kg
17 | Cn1c(N2CCO[C@H]3CCC[C@@H]32)nc(-c2ccncc2F)cc1=O | – | – | 35 nM | – | – | – | –
18 | C[C@@H]1CN(c2nc(-c3ccncc3F)cc(=O)n2C)[C@H](C)CO1 | – | – | 453 nM | – | – | – | –
19 | Cn1c(N2CCOC(C3CCC3)C2)nc(-c2ccncc2F)cc1=O (racemic) | 200 µL/min/mg | > 50000 nM | 12 nM | 37700 nM | 1500 nM | – | –
20 | CC[C@H]1COCCN1c1nc(-c2ccncc2F)cc(=O)n1C | – | – | 30 nM | – | – | – | –
21 | CCCCC1CN(c2nc(-c3ccncc3F)cc(=O)n2C)CCO1 (racemic) | 210 µL/min/mg | > 50000 nM | 12 nM | 2300 nM | 7500 nM | – | –
